# Columns and labels:
# LAGκ-1A tumors = experiment: LAGκ-1A human multiple myeloma xenograft in SCID mice; assay type: in vivo; conditions: ruxolitinib 1.5 mg/kg i.p. twice daily, dexamethasone 1 mg/kg i.p. once daily, lenalidomide 15 mg/kg oral gavage once daily
# Method: (§1) The combination of the JAK2 inhibitor ruxolitinib with lenalidomide and dexamethasone was tested on human multiple myeloma tumors in vivo. The anti-multiple myeloma effects of ruxolitinib were evaluated with mice bearing either LAGκ-1A (bortezomib- and melphalan-sensitive) or LAGκ-2 (bortezomib- and melphalan-resistant) tumors, both of which were originally derived from bone marrow biopsies from multiple myeloma patients. These tumors closely resemble human multiple myeloma and have been passaged through multiple generations of mice with consistent growth and chemoresistance patterns.
# Following intramuscular implantation of LAGκ-1A tumor tissue, mice underwent treatment with vehicle control, ruxolitinib, dexamethasone, lenalidomide, ruxolitinib and dexamethasone, ruxolitinib and lenalidomide, dexamethasone and lenalidomide, or ruxolitinib with lenalidomide and dexamethasone (see FIG. 8A). Ruxolitinib was administered via injection at 1.5 mg/kg i.p., twice daily; dexamethasone was administered at 1 mg/kg i.p., once daily, and lenalidomide was administered via oral gavage at 15 mg/kg, once daily. When ruxolitinib, lenalidomide, or dexamethasone was administered individually, LAGκ-1A tumor growth was not inhibited compared to control.
# (§2) Six- to 8-week-old male severe combined immunodeficient (SCID) mice were obtained from the Jackson Laboratory (Bar Harbor, Me., USA) and maintained in a specific pathogen-free area in our animal resources facility. Human myeloma tumors (LAGκ-1A or LAGκ-2) which have been maintained in our laboratory for many years were excised from an anaesthetized tumor containing donor mouse, sectioned into 20-40 mm3 pieces, and surgically implanted into the left superficial gluteal muscle of the anaesthetized naive SCID mice. Recipient mice received weekly injections of anti-asialo GM1 rabbit serum (Wako Bioproducts, Richmond, Va., USA) to further suppress immune activity and allow growth of the human tumor. All animal studies were conducted according to protocols approved by the Institutional Animal Care and Use Committee. […]
# LAGκ-2 tumors = experiment: LAGκ-2 human multiple myeloma xenograft in SCID mice; assay type: in vivo; conditions: dosing as for LAGκ-1A (dexamethasone 1.5 mg/kg for LAGκ-2)
# Method: as §1
# In another experiment, mice received an intramuscular implantation of LAGκ-2 tumor tissue, and then underwent treatment with vehicle control, ruxolitinib, dexamethasone, lenalidomide, ruxolitinib and dexamethasone, ruxolitinib and lenalidomide, dexamethasone and lenalidomide, or ruxolitinib with lenalidomide and dexamethasone, as described above (see FIG. 8B). Similar to the effects on LAGκ-1A tumors, when ruxolitinib, lenalidomide, or dexamethasone was administered individually, LAGκ-2 tumor growth was not inhibited compared to control.
# as §2, with “Committee. Animals were anaesthetized with ketamine, xylazine, and isoflurane prior to surgery and were euthanized when tumors reached 2 cm in diameter.” for “Committee.”
SMILES,LAGκ-1A tumor growth compared to control (LAGκ-1A tumors),LAGκ-2 tumor growth compared to control (LAGκ-2 tumors)
Nc1cccc2c1CN(C1CCC(=O)NC1=O)C2=O (stereo not drawn) [lenalidomide],not inhibited,not inhibited
N#CC[C@H](C1CCCC1)n1cc(-c2ncnc3[nH]ccc23)cn1 [ruxolitinib],not inhibited,not inhibited
C[C@@H]1C[C@H]2[C@@H]3CCC4=CC(=O)C=C[C@]4(C)[C@@]3(F)[C@@H](O)C[C@]2(C)[C@@]1(O)C(=O)CO [dexamethasone],not inhibited,not inhibited
